The text below walks through data of the supplement of paper PMC11061612.

Assay in all cases: Bliss excess, mean over the matrix (fraction); higher = more synergy
For assay [1], the system named is KMRC-1 (Kidney Carcinoma). A digest of the protocol:
(§1)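 After 24 hours at 37°C and 5% CO2 in 1536-well plates, cells in DMEM/F12 or RPMI plus 10% FBS received two-drug dose matrices for 72 hours. Viability came from CellTiter-Glo 2.0 luminescence and was scaled as inhibition, anchored at 0 by vehicle wells and at 1 by blank wells. Combination Emax is taken as the second-highest inhibition in the matrix, and Bliss excess as the observed combination effect less EA + EB − EA·EB, with EA and EB the single-agent effects.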

In assay [2] the test system is EFO-21 (Ovarian Carcinoma). A digest of the protocol: as §1
Assay [3] relates to NCI-H1092 (Small Cell Lung Carcinoma). A digest of the protocol:
as §1

Assay [4] deals with SNU-387 (Hepatocellular Carcinoma). A digest of the protocol:
as §1

A further assay relates to EW-1 (Ewing's Sarcoma). A digest of the protocol:
as §1

In assay [5] the test system is MOG-G-UVW (Low Grade Glioma). A digest of the protocol: as §1
In assay [6] the test system is HAL-01 (B-Lymphoblastic Leukemia). The method in brief: as §1
For assay [7], the system named is KOPN-8 (B-Lymphoblastic Leukemia). The method in brief: as §1
Assay [8] deals with SW872 (Other Solid Carcinomas). The method in brief: as §1
The subject of the next assay is Hey (Ovarian Carcinoma). A digest of the protocol:
as §1

The test system of assay [9] is HCC2998 (Colorectal Carcinoma). The method in brief: as §1
The test system of assay [10] is MV-4-11 (Acute Myeloid Leukemia). The method in brief: as §1
Assay [11] relates to EJM (Plasma Cell Myeloma). A digest of the protocol: as §1
For assay [12], the system named is HCC1937 (Breast Carcinoma). The method in brief: as §1
In assay [13] the test system is SW982 (Other Solid Carcinomas). A digest of the protocol: as §1
The subject of assay [14] is KGN (Other Solid Carcinomas). A digest of the protocol: as §1
Assay [15] has as its system NCI-H1993 (Lung Adenocarcinoma). A digest of the protocol: as §1
Assay [16] has as its system CADO-ES1 (Ewing's Sarcoma). The method in brief:
as §1

Assay [17] has as its system Ca-Ski (Cervical Carcinoma). The method in brief: as §1

Each structure is given as a SMILES string.

Regarding `COc1cccc2c1C(=O)c1c(O)c3c(c(O)c1C2=O)C[C@@](O)(C(=O)CO)C[C@@H]3O[C@H]1C[C@H](N)[C@H](O)[C@H](C)O1` [Doxorubicin] + Cc1cc2ncnn2cc1Nc1ncc2c(n1)n(C1CCOCC1)c(=O)n2C [AZD7648] (first compound max 1 µM, 7x7, partner max 10 µM), the Bliss excess was 0.0835 in assay [1]; -0.03 in assay [2]; -0.0037 in [3]; 0.005 in [4]; 0.126 with EW-1 (Ewing's Sarcoma); 0.101 in [5]. Besides, the Bliss excess in [6] came to 0.0877; in assay [7], 0.119; in [8] it was 0.0299; with Hey (Ovarian Carcinoma), 0.13; in assay [9], 0.0344; in [10], 0.137. In addition, the Bliss excess in assay [11] was 0.0833; in assay [12] it was 0.005; in [13], 0.0226; in assay [14], 0.0694; in [15], -0.0182; in assay [16] it was 0.111. Further, in assay [17], the Bliss excess is 0.0498.
With `COc1cccc(OCCCN)c1-c1cc(Nc2cnc(C#N)cn2)n[nH]1` [Prexasertib] + C=CCn1c(=O)c2cnc(Nc3ccc(N4CCN(C)CC4)cc3)nc2n1-c1cccc(C(C)(C)O)n1 [AZD1775] (first compound max 1 µM, partner max 1 µM), the Bliss excess in assay [1] is 0.0366; in assay [2] it was -0.0075; in assay [3], 0.031; in assay [4] it was 0.081; in the assay on EW-1 (Ewing's Sarcoma), 0.0461; in [5], 0.0656. The Bliss excess in [6] worked out at 0.0697; in [7], 0.0438; in assay [8], 0.144; in the assay with Hey (Ovarian Carcinoma), 0.11; in assay [9], 0.0716; in assay [10], 0.0775. Moreover, the Bliss excess in [11] was 0.0228; in assay [12], -0.0247; in assay [13], -0.0341; in assay [14], 0.0615; in assay [15] it was 0.0596; in assay [16], 0.0737. Also, the Bliss excess in assay [17] was found to be 0.0816.
With `COc1cccc(OCCCN)c1-c1cc(Nc2cnc(C#N)cn2)n[nH]1` [Prexasertib] + CCc1c2c(nc3ccc(O)cc13)-c1cc3c(c(=O)n1C2)COC(=O)[C@]3(O)CC [SN-38] (first compound max 1 µM, 7x7, partner max 0.3 µM), the Bliss excess in assay [1] is -0.0247; in [2], -0.0714; in [3], 0.0354; in assay [4] it was 0.0549; in the assay with EW-1 (Ewing's Sarcoma), -0.012; in [5], 0.0045. For the same compound, the Bliss excess in assay [6] is -0.0262; in assay [7] it was -0.0147; in assay [8], -0.015; in the assay on Hey (Ovarian Carcinoma) it was -0.0717; in assay [9] it was 0.0876; in [10], -0.0107. The Bliss excess in assay [11] was -0.0446; in assay [12] it was -0.011; in assay [13] it was -0.0952; in [14], -0.116; in assay [15] it was 0.055; in assay [16] it was 0.0033. Moreover, the Bliss excess in assay [17] was determined as 0.
Regarding `COc1cccc(OCCCN)c1-c1cc(Nc2cnc(C#N)cn2)n[nH]1` [Prexasertib] + CN(C)CCCOc1ccc(-c2ccc3ncc4c(c3c2)n(C2CCOCC2)c(=O)n4C)cn1 [AZD0156] (first compound max 1 µM, 7x7, partner max 1 µM), the Bliss excess in assay [1] was -0.0317; in assay [2] it was -0.0684; in assay [3], -0.0561; in assay [4] it was -0.0232; in the assay with EW-1 (Ewing's Sarcoma), -0.0145; in assay [5] it was -0.0204. The Bliss excess was -0.0002 in [6]; 0.0171 in assay [7]; -0.0035 in assay [8]; -0.0098 in the assay on Hey (Ovarian Carcinoma); -0.0121 in [9]; -0.0249 in [10]. In addition, the Bliss excess in [11] is -0.0303; in [12] it was 0.0409; in assay [13] it was -0.0813; in assay [14], -0.0432; in [15], -0.0768; in assay [16], 0.0008. For the same compound, the Bliss excess in [17] is -0.0373.
`COc1cccc(OCCCN)c1-c1cc(Nc2cnc(C#N)cn2)n[nH]1` [Prexasertib] + C[C@@H]1COCCN1C2=NC(=NC(=C2)C3(CC3)[S@](=N)(=O)C)C4=C5C=CNC5=NC=C4 [AZD6738] (first compound max 1 µM, 7x7, partner max 10 µM): the Bliss excess was 0.0101 in assay [1]; -0.02 in assay [2]; -0.0568 in assay [3]; 0.0035 in [4]; -0.0158 in the assay with EW-1 (Ewing's Sarcoma); 0.0317 in [5]. Moreover, the Bliss excess was -0.022 in assay [6]; -0.0539 in assay [7]; 0.01 in [8]; 0.007 with Hey (Ovarian Carcinoma); 0.0211 in assay [9]; -0.0356 in [10]. Besides, the Bliss excess was -0.044 in assay [11]; -0.0129 in assay [12]; -0.0406 in [13]; -0.0399 in assay [14]; -0.0176 in assay [15]; -0.0348 in [16]. In addition, the Bliss excess in assay [17] was -0.0134.
Turning to `COc1cccc(OCCCN)c1-c1cc(Nc2cnc(C#N)cn2)n[nH]1` [Prexasertib] + Cc1cc2ncnn2cc1Nc1ncc2c(n1)n(C1CCOCC1)c(=O)n2C [AZD7648] (first compound max 1 µM, 7x7, partner max 10 µM), the Bliss excess is -0.0152 in assay [1]; -0.0446 in assay [2]; -0.0287 in assay [3]; -0.0434 in assay [4]; -0.0217 in the assay on EW-1 (Ewing's Sarcoma); -0.0264 in assay [5]. For the same compound, the Bliss excess was -0.0257 in assay [6]; 0.0298 in assay [7]; 0.0191 in [8]; -0.0301 in the assay with Hey (Ovarian Carcinoma); -0.0053 in assay [9]; -0.0083 in [10]. For the same compound, the Bliss excess in assay [11] is -0.0334; in assay [12], -0.0594; in [13], -0.0355; in [14], -0.0033; in assay [15], -0.0683; in [16] it was -0.0261. Moreover, the Bliss excess in [17] is -0.0159.
Take `COc1cccc(OCCCN)c1-c1cc(Nc2cnc(C#N)cn2)n[nH]1` [Prexasertib] + O=C(c1cc(Cc2n[nH]c(=O)c3ccccc23)ccc1F)N1CCN(C(=O)C2CC2)CC1 [Olaparib] (first compound max 1 µM, 7x7, partner max 10 µM): the Bliss excess was -0.0411 in assay [1]; -0.1 in assay [2]; -0.0514 in assay [3]; 0.0083 in assay [4]; -0.0144 in the assay on EW-1 (Ewing's Sarcoma); -0.0035 in assay [5]. Besides, the Bliss excess in assay [6] was 0.0006; in assay [7], -0.0105; in assay [8], -0.018; in the assay with Hey (Ovarian Carcinoma) it was -0.0098; in [9], -0.0432; in [10], -0.0247. The Bliss excess in assay [11] is -0.0434; in [12], -0.103; in assay [13], -0.103; in assay [14], -0.031; in [15], -0.0685; in assay [16] it was -0.0315. In assay [17], the Bliss excess is -0.0243.
